Values quoted from earlier work in patent US10253371B2, “Method of treating leukemia based on gene expression of clock genes” (National Guard Health Affairs, priority 2016, dated 2019).

Tests used:
Bcr-Abl tyrosine kinase = conditions: more potent than imatinib
Bcr-Abl expressing cells = conditions: more potent than imatinib

potency relative to imatinib in inhibiting Bcr-Abl tyrosine kinase activity (Bcr-Abl tyrosine kinase): 10-30 fold
Structure (SMILES): Cc1cn(-c2cc(NC(=O)c3ccc(C)c(Nc4nccc(-c5cccnc5)n4)c3)cc(C(F)(F)F)c2)cn1 [Nilotinib]
potency relative to imatinib in inhibiting proliferation of Bcr-Abl expressing cells (Bcr-Abl expressing cells): 10-30 fold
